Patent publication US4209529A, “Farnesyl carboxylic acid α-bisabolol ester, a mucosal stabilizing composition and method of manufacturing the same” (Kotobuki Seiyaku Company Limited, priority 1977, dated 1980)

How the values were obtained:
[1] = tested on: aspirin ulcer; assay: Aspirin-induced gastric mucosal lesion (aspirin ulcer); type: in vivo; conditions: aspirin 100 mg./kg. per os
Procedure: (§1) Each drug in Table 5, suspended with TWEEN 80 and 1% CMC solution, was given either intraduodenally immediately after pylorus ligation (aspirin ulcer) or orally (indomethacin ulcer) at the volume of 0.5 ml./100 g. Aspirin was given orally 10 min. after pylorus ligation. Indomethacin was given orally 10 min. after drug administration. All animals were sacrificed 7 hrs. after operation.

[2] = tested on: gastric epithelial cell; assay: N-acetyl neuromatic acid (NANA) in gastric juice of pylorus-ligated rats (gastric epithelial cell stabilizing effect); type: in vivo, rat (male Donryu strain); parameters: unit not given here; conditions: 200 mg./kg. orally, three times a day for 5 days, and after pylorus ligation, 8 h ligation
Procedure: (§2) Male Donryu strain rats, weighing about 200 g., were divided into five groups. […] On the fifth day the animals were fasted for 24 hours, and submitted to pylorus ligation under light ether anethesia.
(§3) The drugs were given just after pylorus ligation orally. After 8 hours of ligation, the rats were sacrificed and gastric juice was collected.

[3] = tested on: stress ulcer; assay: Stress ulcer; type: in vivo, rat (male Wistar strain); conditions: 100 mg./kg. per os, 30 minutes before the stress; 18 hours stress
Procedure: To study the anti-ulcerative actions of the test drugs in experimental animals, the stress ulcer was selected. Male rats of the Wistar strain, weighing 200-250 g. were subjected to stress according to Takagi et. al. (Chem. Pharm. Bull 12,465. 1964). The four test drugs, the present compound (III), α-bisabolol (I), farnesyl carboxylic acid (II) and gefarnate were suspended in 1% methyl cellulose and were administered to the rats in a dose of 100 mg./kg. body weight per os, 30 minutes before the stress. The animals were placed in the stress box and immersed in water bath of 20°-25° C. to the level of the xiphoid process for 18 hours.
At the end of the stress the animals were removed from the stress box, killed by a blow on the head, and the stomach removed. The stomach was filled with 1% formalin solution, placed in 1% formalin solution for 15 minutes and was then cut open along the greater curvature and examined for lesions to obtain the ulcer index. The ulcer index was determined in six grades (0-5; 5 implying perforation of stomach).

[4] = cited from earlier work; for sedative or depressive activities: Ann. Pharm. France, 33, 229 ('75); for anti-inflammative and anti-ulcerative activities: literature
[5] = LD50 by the up and down method; type: in vivo; conditions: mouse, in vivo, po; per os; observations for 24 hours
Procedure: (§4) The LD50 value of the present compound in ddY strain mice was determined by the up and down method, with observations carried out for 24 hours.
(§5) The test drugs used in this experiment were suspended in 1% methyl cellulose and were given orally.

[6] = tested on: carrageenin-induced rat paw edema; assay: Carrageenin-induced rat paw edema; type: in vivo, rat (Wistar); conditions: 300 mg./kg. per os
Procedure: To study the effect of the present compound on carrageenin-induced rat paw edema, the method of C. A. Winter (J. Pharmacol 141,369, (1963)) was applied. Wistar rats, weighing about 140 g. were used.
The present compound (III), α-bisabolol and farnesyl carboxylic acid were administered at a dosage of 300 mg./kg. (per os.) using a 1% CMC solution as the vehicle. The % inhibition was calculated as follows: [formula]

[7] = tested on: gastric mucosa; assay: Gastric errosion induced by 8 hours of pylorus ligation; type: in vivo, rat (male Donryu strain); conditions: 200 mg./kg. orally
Procedure: as §2, §3

[8] = Other pharmacological experiment (mucosal stabilizing, anti-inflammative, wound-healing); conditions: another experiment, no data shown
[9] = tested on: indomethacin ulcer; assay: Indomethacin-induced gastric mucosal lesion (indomethacin ulcer); type: in vivo; conditions: 300 mg./kg. orally; indomethacin 20 mg./kg. per os
Procedure: The preventive activity of new compound (III) against the formation of gastric mucosal lesion induced by the gastric ulcerogenic, anti-inflammatory drugs, indomethacin and aspirin was evaluated according to Okabe et. al. (Jap. J. Pharmacol. 24 169 p. 1974, Amer. J. Dig. Dis. 20 626 1975).
as §1

[10] = tested on: ddY strain mice; assay: LD50 by the up and down method; type: in vivo; conditions: per os; ratio of LD50
Procedure: as §4, §5

[11] = tested on: 5-HT induced ulcer; assay: 5-HT induced ulcer; type: in vivo, rat
Procedure: In the following experiments, the effects of test drugs on 5-HT induced ulcer were investigated. To induce the gastric lesion, rats were fasted for 24 hours before injection of 5-HT 30 mg./kg. S.C. The animals were sacrificed after 20 hours of 5-HT injections, and examined for lesion. The dose and route of administration of test drugs are the same as experiment 3. In the experiment, the area of lesions (mm.^2) were measured as the ulcer-index.

[12] = Chemical stability; type: physicochemical

Compound | Inhibition ([1]; 100 mg./kg. intraduodenally) [%] | Ulcer Index, means ± s.e. ([1]; 100 mg./kg. intraduodenally) [mm.^2] | Inhibition ([1]; 300 mg./kg. intraduodenally) [%] | Ulcer Index, means ± s.e. ([1]; 300 mg./kg. intraduodenally) [mm.^2] | Inhibition ([1]; 1000 mg./kg. intraduodenally) [%] | Ulcer Index, means ± s.e. ([1]; 1000 mg./kg. intraduodenally) [mm.^2] | Amounts of NANA, bond [2] | Amounts of NANA, free [2] | Amounts of NANA, total [2] | score (ulcer index, grades 0-5) [3] | sedative or depressive activities [4] | anti-inflammative and anti-ulcerative activities [4] | LD50 at 24 h [5] [mg/kg] | Increase in % of paw edema [6] [%] | Maximum % Inhibition [6] [%] | increased rate of paw-edema (fraction) [6] | other results
CC(C)=CCC/C(C)=C/CC/C(C)=C/CCC(=O)OC/C=C(\C)CCC=C(C)C [Gefarnate] | 22.3 | 23.7 ± 3.2 | 49.9 | 16.2 ± 2.9 | 49.5 | 15.4 ± 4.4 | 72.8 | 20.8 | 93.6 | 3.83 ± 0.73 |  |  |  |  |  |  | 
CC(C)=CCCC(C)(O)C1CC=C(C)CC1 (stereo not drawn) [α-Bisabolol, α-bisabolol] |  |  |  |  |  |  | 136.3 | 12.4 | 148.7 | 4.0 ± 0.25 | sedative or depressive activities | anti-inflammative and anti-ulcerative activities | 3.67 | 88.1 | 11.9 | 0.881 | 
CC(C)=CCCC(C)=CCCC(C)=CCC(=O)O [Farnesyl carboxylic acid, 4,8,12-trimethyl-3,7,11-tridecatrienoic acid] |  |  |  |  |  |  | 80.6 | 18.3 | 98.6 | 2.33 ± 0.84 |  |  | 4.26 | 76.7 | 23.3 | 0.767 | 
CC(C)=CCCC(C)=CCCC(C)=CCC(=O)OC(C)(CCC=C(C)C)C1CC=C(C)CC1 (stereo not shown) [Compound (III), 4,8,12-1,5-dimethyl-1-(4-methyl-3-cyclohexenyl)-4-hexenyl ester of 4,8,12-trimethyl-3,7,11-tridecatrienoic acid] | 29.8 | 21.4 ± 4.4 | 44.6 | 16.9 ± 3.6 | 65.2 | 10.6 ± 2.2 | 71.8 | 16.2 | 88.9 | 1.5 ± 0.50 |  |  | 24.1 | 60.4 | 39.6 | 0.604 | damage to the gastric mucosa (gastric errosion) [7]: did not produce any damage to the gastric mucosa; mucosal stabilizing, anti-inflammative and wound-healing activities [8]: possess mucosal stabilizing anti-inflammative, and wound-healing activities; Inhibition [9]: 42.6%; Ulcer Index, means ± s.e. [9]: 26.4 ± 5.4 mm.^2; toxicity, times less than that of α-bisabolol and farnesyl carboxylic acid [10]: 6-7 times; inhibition of the occurrence of lesions ([11]; 100 mg./kg.): inhibits the occurrence of lesions completely; Ulcer Index (area of lesions) ([11]; 100 mg./kg. per os, 5-HT 30 mg./kg. S.C., 20 hours): 0 mm.^2; chemical stability [12]: chemically stable
C=CC(C)=CCC=C(C)CCC=C(C)C [farnesene] |  |  |  |  |  |  |  |  |  |  | sedative or depressive activities | anti-inflammative and anti-ulcerative activities |  |  |  |  | 
